Source: the NIST ThermoML archive (doi:10.1016/j.fluid.2012.06.013)

Assays:
[1] = Liquid; for mass density: 298.15 K, Vibrating tube method
[2] = refractive index (Na D-line) (dimensionless); conditions: 298.15 K; 101.33 kPa; Liquid; Standard Abbe refractometry
[3] = xn = mol fraction of the nth substance listed; conditions: 298.15 K, 101 kPa, Liquid, Vibrating tube method

CCCO [propan-1-ol]
[1]
Conditions	Normal boiling temperature [°C]	mass density [kg/m3]
101.33 kPa	–	799.6
Ebulliometric method (Recirculating still)	97.29	–

[1]
Conditions	vapor or sublimation pressure [kPa]
313.98 K, Closed cell (Static) method	8
325.46 K, Closed cell (Static) method	14
331.28 K, Closed cell (Static) method	18
335.02 K, Closed cell (Static) method	22
339.49 K, Closed cell (Static) method	28
343.81 K, Closed cell (Static) method	34
347.33 K, Closed cell (Static) method	40
351.55 K, Closed cell (Static) method	48
353.46 K, Closed cell (Static) method	52
356.16 K, Closed cell (Static) method	58
359.07 K, Closed cell (Static) method	66
361.64 K, Closed cell (Static) method	72
363.69 K, Closed cell (Static) method	78
366.43 K, Closed cell (Static) method	88
367.86 K, Closed cell (Static) method	92
372.66 K, Closed cell (Static) method	110
374.63 K, Closed cell (Static) method	118
376.34 K, Closed cell (Static) method	126
378.84 K, Closed cell (Static) method	138
380.75 K, Closed cell (Static) method	148
382.61 K, Closed cell (Static) method	158
384.08 K, Closed cell (Static) method	166
385.46 K, Closed cell (Static) method	174
386.6 K, Closed cell (Static) method	182
387.29 K, Closed cell (Static) method	186
389.05 K, Closed cell (Static) method	198
390.26 K, Closed cell (Static) method	206
391.39 K, Closed cell (Static) method	214
393.67 K, Closed cell (Static) method	230
398.52 K, Closed cell (Static) method	260
406.65 K, Closed cell (Static) method	340
410.69 K, Closed cell (Static) method	382
414.02 K, Closed cell (Static) method	420
417.3 K, Closed cell (Static) method	460
418.84 K, Closed cell (Static) method	475
421.54 K, Closed cell (Static) method	512
423.55 K, Closed cell (Static) method	545
427.2 K, Ebulliometric method (Recirculating still)	600
427.98 K, Closed cell (Static) method	612
430.49 K, Closed cell (Static) method	655
432.23 K, Closed cell (Static) method	685
434.42 K, Closed cell (Static) method	722
436.33 K, Closed cell (Static) method	755
439.88 K, Closed cell (Static) method	825
441.78 K, Closed cell (Static) method	865
443 K, Closed cell (Static) method	890
444.97 K, Closed cell (Static) method	935
448.1 K, Closed cell (Static) method	1007
449.6 K, Closed cell (Static) method	1043
452.29 K, Closed cell (Static) method	1112
453.22 K, Closed cell (Static) method	1135
454.7 K, Closed cell (Static) method	1175
456 K, Closed cell (Static) method	1210
457.19 K, Closed cell (Static) method	1245
458.54 K, Closed cell (Static) method	1282
459.71 K, Closed cell (Static) method	1317
460.87 K, Closed cell (Static) method	1352
461.97 K, Closed cell (Static) method	1387
463.21 K, Closed cell (Static) method	1425
464.18 K, Closed cell (Static) method	1455
465.41 K, Closed cell (Static) method	1495
466.65 K, Closed cell (Static) method	1535
467.43 K, Closed cell (Static) method	1562
468.64 K, Closed cell (Static) method	1602
469.46 K, Closed cell (Static) method	1630

Conditions	refractive index
[2]	1.3837

CC(=O)OCC(C)C [2-methylpropyl ethanoate] + CCCO
[3]
Conditions	mass density [kg/m3]
x1 = 0.053	805.4
x1 = 0.092	809.3
x1 = 0.145	814.5
x1 = 0.196	819.1
x1 = 0.249	823.5
x1 = 0.302	827.6
x1 = 0.346	830.9
x1 = 0.444	837.6
x1 = 0.482	840
x1 = 0.508	841.6
x1 = 0.565	845
x1 = 0.613	847.7
x1 = 0.719	853.3
x1 = 0.751	854.9
x1 = 0.804	857.5
x1 = 0.854	859.8
x1 = 0.889	861.4
x1 = 0.909	862.3
x1 = 0.953	864.2
x1 = 1	866.2

CC(C)O [propan-2-ol] + CC(=O)OCC(C)C
Conditions	mass density [kg/m3]
[3], x2 = 0	781.3

CC(=O)OCC(C)C [2-methylpropyl ethanoate]
[1]
Conditions	Normal boiling temperature [°C]	mass density [kg/m3]
101.33 kPa	–	866.2
Ebulliometric method (Recirculating still)	116.29	–

Conditions	vapor or sublimation pressure [kPa]
[1], 461.03 K, Ebulliometric method (Recirculating still)	600

Conditions	refractive index
[2]	1.3882

CCCO [propan-1-ol] + CC(=O)OCC(C)C
Conditions	mass density [kg/m3]
[3], x2 = 0	799.6

CC(=O)OCC(C)C [2-methylpropyl ethanoate] + CCO
[3]
Conditions	mass density [kg/m3]
x1 = 0.09	799.8
x1 = 0.153	808.3
x1 = 0.22	816.2
x1 = 0.277	822.2
x1 = 0.349	828.9
x1 = 0.44	836.3
x1 = 0.563	844.8
x1 = 0.657	850.4
x1 = 0.742	854.9
x1 = 0.85	860
x1 = 0.898	862.1
x1 = 0.942	863.9
x1 = 1	866.2

CC(C)O [propan-2-ol]
[1]
Conditions	Normal boiling temperature [°C]	mass density [kg/m3]
101.33 kPa	–	781.3
Ebulliometric method (Recirculating still)	82.38	–

Conditions	vapor or sublimation pressure [kPa]
[1], 410.08 K, Ebulliometric method (Recirculating still)	600

Conditions	refractive index
[2]	1.3751

CCO [ethanol]
Conditions	mass density [kg/m3]
[1], 101 kPa	785.2

Conditions	vapor or sublimation pressure [kPa]
[1], 405.53 K, Ebulliometric method (Recirculating still)	600

CC(=O)OCC(C)C [2-methylpropyl ethanoate] + CC(C)O
[3]
Conditions	mass density [kg/m3]
x1 = 0.051	787.4
x1 = 0.126	796.2
x1 = 0.204	804.7
x1 = 0.235	807.9
x1 = 0.352	819.1
x1 = 0.407	824
x1 = 0.501	831.8
x1 = 0.549	835.6
x1 = 0.677	845.1
x1 = 0.752	850.3
x1 = 0.799	853.5
x1 = 0.868	857.9
x1 = 0.949	863.1
x1 = 1	866.2

CCO [ethanol] + CC(=O)OCC(C)C
Conditions	mass density [kg/m3]
[3], x2 = 0	785.2
